Counter-ions that a name gives are not always drawn. Like-named read-outs stand apart in the source and are kept apart here.
System: subjects suffering from schizophrenia
Text: The level of agitation in subjects may be assessed herein using the PEC (Positive and Negative Symptom Scale—Excitatory Component) scale, which is a known five item scale that measures symptoms of agitation, namely excitement, tension, hostility, uncooperativeness, and poor impulse control, with each item rated from 1 (absent) to 7 (extremely severe). Combined scores range from 5 to 35. A score of 20 or more corresponds to severe agitation.

**Q.** What does the source list for `Cc1cccc([C@H](C)c2cnc[nH]2)c1C` [dexmedetomidine hydrochloride]?
**A.** PEC values after infusion start (Patient No. 1, treatment arm, 0 min): 9; PEC values after infusion start (Patient No. 1, treatment arm, 15 min): 5; PEC values after infusion start (Patient No. 2, treatment arm, 0 min): 16; PEC values after infusion start (Patient No. 2, treatment arm, 15 min): 13; PEC values after infusion start (Patient No. 2, treatment arm, 30 min): 12; PEC values after infusion start (Patient No. 2, treatment arm, 45 min): 11; PEC values after infusion start (Patient No. 2, treatment arm, 60 min): 9; PEC values after infusion start (Patient No. 2, treatment arm, 75 min): 7; PEC values after infusion start (Patient No. 3, treatment arm, 0 min): 12; PEC values after infusion start (Patient No. 3, treatment arm, 15 min): 12; PEC values after infusion start (Patient No. 3, treatment arm, 30 min): 10; PEC values after infusion start (Patient No. 3, treatment arm, 45 min): 7; PEC values after infusion start (Patient No. 3, treatment arm, 60 min): 6; PEC values after infusion start (Patient No. 4, treatment arm, 0 min): 9; PEC values after infusion start (Patient No. 4, treatment arm, 15 min): 9; PEC values after infusion start (Patient No. 4, treatment arm, 30 min): 8; PEC values after infusion start (Patient No. 4, treatment arm, 45 min): 8; PEC values after infusion start (Patient No. 4, treatment arm, 60 min): 7; PEC values after infusion start (Patient No. 4, treatment arm, 75 min): 7; PEC values after infusion start (Patient No. 4, treatment arm, 90 min): 7; PEC values after infusion start (Patient No. 4, treatment arm, […]): 7; PEC values after infusion start (Patient No. 11, treatment arm, 0 min): 13; PEC values after infusion start (Patient No. 11, treatment arm, 15 min): 13; PEC values after infusion start (Patient No. 11, treatment arm, 30 min): 11; PEC values after infusion start (Patient No. 11, treatment arm, 45 min): 9; PEC values after infusion start (Patient No. 11, treatment arm, 60 min): 9; PEC values after infusion start (Patient No. 11, treatment arm, 75 min): 7; PEC values after infusion start (Patient No. 12, treatment arm, 0 min): 13; PEC values after infusion start (Patient No. 12, treatment arm, 15 min): 13; PEC values after infusion start (Patient No. 12, treatment arm, 30 min): 13; PEC values after infusion start (Patient No. 12, treatment arm, 45 min): 10; PEC values after infusion start (Patient No. 12, treatment arm, 60 min): 10; PEC values after infusion start (Patient No. 12, treatment arm, 75 min): 8; PEC values after infusion start (Patient No. 12, treatment arm, 90 min): 6; PEC values after infusion start (Patient No. 12, treatment arm, […]): 5; PEC values after infusion start (Patient No. 14, treatment arm, 0 min): 10; PEC values after infusion start (Patient No. 14, treatment arm, 15 min): 9; PEC values after infusion start (Patient No. 14, treatment arm, 30 min): 6; PEC values after infusion start (Patient No. 14, treatment arm, 45 min): 6; PEC values after infusion start (Patient No. 14, treatment arm, 60 min): 5; PEC values after infusion start (Patient No. 14, treatment arm, 75 min): 5; PEC values after infusion start (Patient No. 16, treatment arm, 0 min): 10; PEC values after infusion start (Patient No. 16, treatment arm, 15 min): 9; PEC values after infusion start (Patient No. 16, treatment arm, 30 min): 6; PEC values after infusion start (Patient No. 16, treatment arm, 45 min): 6; PEC values after infusion start (Patient No. 16, treatment arm, 60 min): 7; PEC values after infusion start (Patient No. 16, treatment arm, 75 min): 5; PEC values after infusion start (Patient No. 17, treatment arm, 0 min): 10; PEC values after infusion start (Patient No. 17, treatment arm, 15 min): 8; PEC values after infusion start (Patient No. 17, treatment arm, 30 min): 7; PEC values after infusion start (Patient No. 17, treatment arm, 45 min): 5; Efficacy (Primary/secondary end points): subjects with PEC score below 7 (Schizophrenia Study): 9/10 PEC score; patients in the treatment arm with agitation reduced to a minimum (PEC score of 7 or below) (schizophrenia): 9 out of 10

Reference: patent US20210267944A1 (BioXcel Therapeutics, Inc., priority 2018, published 2021)
